Experimental data published in patent publication US4535159A, “Process for producing 1-position amino-derivatives of 1-(3',4'-methylenedioxyphenyl)propane-2-ol” (Ferrer Internacional, S.A., priority 1981, dated 1985).

Key:
Swiss male mice = experiment: Analgesic activity, phenylquinone test (Siegmund et al), oral administration in Swiss male mice; assay type: in vivo; conditions: Mus musculus
Excerpt: (a) Analgesic activity.-Analgesic activity has been determined in Swiss male mice by orally administering the compounds according to the phenylquinone test, as described by Siegmund et al (Proc. Soc.Exp.Biol.Med., 95, 729, 1957). From the analgesia values obtained, the ED50 for each compound has been calculated.

[1] = Acute toxicity, oral administration in female and male Swiss mice (Reed-Muench method as modified by Pizzi); conditions: mouse, in vivo
Excerpt: (b) Acute toxicity.-Acute toxicity has been determined in both female and male Swiss mice by oral administration according to the method by Reed-Muench as modified by Pizzi (Human Biology, 22(3), 151-190, 1950).

Row | SMILES | ED50 (Swiss male mice) [mg/kg] | LD50 [1] [mg/kg]
1 | C[C@H](O)[C@@H](c1ccc2c(c1)OCO2)N1CCOCC1 (relative stereo) [Example 2, d,l-erythro-1-(3',4'-methylenedioxyphenyl)-1-morpholine-propane-2-ol] | 25.7 | 1200
2 | C[C@H](O)[C@@H](c1ccc2c(c1)OCO2)N1CCN(Cc2ccccc2)CC1 (relative stereo) [Example 3, d,l-erythro-1-(3',4'-methylenedioxyphenyl)-1-(4-benzyl-1-piperazinyl)propane-2-ol] | 29.7 | 256
3 | CCN(CC)[C@H](c1ccc2c(c1)OCO2)[C@H](C)O (relative stereo) [Example 4, d,l-erythro-1-(3',4'-methylenedioxyphenyl)-1-diethylamino-propane-2-ol] | 107 | 317
4 | C[C@H](O)[C@@H](c1ccc2c(c1)OCO2)N1CCCCC1 (relative stereo) [Example 5, d,l-erythro-1-(3',4'-methylenedioxyphenyl)-1-piperidinepropane-2-ol] | 33.3 | 277
5 | C[C@H](O)[C@@H](c1ccc2c(c1)OCO2)N1CCC(O)CC1 (relative stereo) [Example 6, d,l-erythro-1-(3',4'-methylenedioxyphenyl)-1-(4-hydroxypiperidine)-propane-2-ol] | 109 | 1060
6 | C[C@H](O)[C@@H](c1ccc2c(c1)OCO2)N1CCCC1 (relative stereo) [Example 7, d,l-erythro-1-(3',4'-methylenedioxyphenyl)-1-pyrrolidinopropane-2-ol] | 140 | 599
7 | C[C@H](O)[C@@H](c1ccc2c(c1)OCO2)N1CCCCCC1 (relative stereo) [Example 8, d,l-erythro-1-(3',4'-methylenedioxyphenyl)-1-homopiperidino-propane-2-ol] | 45.5 | 233
8 | C[C@H](O)[C@H](NCc1ccccc1)c1ccc2c(c1)OCO2 (relative stereo) [Example 9, d,l-erythro-1-(3',4'-methylenedioxyphenyl)-1-benzylaminopropane-2-ol] | 28.8 | 252
9 | C[C@H](O)[C@@H](c1ccc2c(c1)OCO2)N(C)Cc1ccccc1 (relative stereo) [Example 10, d,l-erythro-1-(3',4'-methylenedioxyphenyl)-1-(N-methylbenzylamino)-propane-2-ol] | 33.8 | 360
10 | C[C@H](O)[C@@H](c1ccc2c(c1)OCO2)N(C)C1CCCCC1 (relative stereo) [Example 11, d,l-erythro-1-(3',4'-methylenedioxyphenyl)-1-(N-methylcyclohexylamino)-propane-2-ol] | 29.8 | 167
11 | C[C@H](O)[C@H](NC1CC1)c1ccc2c(c1)OCO2 (relative stereo) [Example 12, d,l-erythro-1-(3',4'-methylenedioxyphenyl)-1-cyclopropylaminopropane-2-ol] | 62.3 | 780
12 | C[C@H](O)[C@H](NC1CCCCC1)c1ccc2c(c1)OCO2 (relative stereo) [Example 13, d,l-erythro-1-(3',4'-methylenedioxyphenyl)-1-cyclohexylaminopropane-2-ol] | 31.7 | 245
13 | CC(=O)Oc1ccccc1C(=O)O [Acetylsalicylic acid, reference compound] | 72 | –
14 | Cc1c(N(C)C)c(=O)n(-c2ccccc2)n1C [Aminophenazone, reference compound] | 23.4 | –
15 | COc1ccc2c3c1O[C@H]1[C@@H](O)C=C[C@H]4[C@@H](C2)N(C)CC[C@@]341 [Codeine, reference compound] | 1.97 | –
